Laboratory results as given in patent US8748461B2, “Metalloenzyme inhibitor compounds” (Viamet Pharmaceuticals, Inc., priority 2011, dated 2014).
In brackets after ≈: the same amount, converted by molar mass.

Legend:
[1] = system: Septoria tritici (ATCC 26517); assay: Minimum Inhibitory Concentration (MIC) vs. Septoria tritici; type: cell-based; details: Zymoseptoria tritici, ATCC26517, 168 h; 50% reduction in growth of S. tritici; 22° C., seven days; read-out: Septoria Rating (MIC)
Method: C. Minimum Inhibitory Concentration (MIC) vs. Septoria tritici Compounds were assessed for their ability to inhibit the growth of a common strain of the fungal plant pathogen Septoria tritici (ATCC 26517) using a procedure based on a Clinical and Laboratory Standards Institute (CLSI) microdilution assay protocol for filamentous fungi. Stock solutions of the test compounds and standards were prepared in DMSO at 6400 μg/mL. Each stock solution was used to prepare a 2-fold dilution series ranging from 16 to 0.016 μg/mL (total of 11 compound concentrations) in RPMI-1640 (Roswell Park Memorial Institute) medium containing 3-(N-morpholino)propanesulfonic acid (MOPS) buffer and 2% DMSO. A 100 μL aliquot of the dilutions was added to columns 1 (16 μg/mL compound) through 11 (0.016 μg/mL compound) of a 96-well microtiter plate. This format was replicated in a second row of the microtiter plate. Thus, each microtiter plate could include 11 concentrations of four test or control compounds replicated twice. A 100 μL aliquot of RPMI-1640/MOPS/2% DMSO medium was added to column 12 (no compound control) of the microtiter plate. A fresh culture of S. tritici was used to prepare a solution of approximately 5×10^4 colony-forming units per milliliter (cfu/mL) in RPMI/MOPS medium without DMSO. A 100 μL aliquot of this solution was added to all 96 wells in the microtiter plate. […] The assay plates were incubated at 22° C. for seven days in the dark without shaking. […] In each case of Table 3, the Septoria rating scale is as follows: […]

[2] = system: Puccinia recondita tritici = Puccinia triticina; assay: Fungicidal activity vs. leaf rust on wheat plants; type: in vivo; details: 50 ppm spray on wheat (Yuma), inoculated the following day, evaluated 7-9 days later; read-out: Puccinia Rating (% Disease Control @ 50 ppm)
Text: D. Evaluation of Fungicidal Activity Vs. Leaf Rust (Causal Agent Puccinia recondita Tritici=Puccinia triticina; Bayer code PUCCRT). […] Each pot contained 3-8 seedlings. These plants were sprayed until wet with the formulated test compounds. The compounds were formulated at 50 ppm in 10 vol. % acetone plus 90 vol. % Triton X water (deionized water 99.99 wt %+0.01 wt % Triton X100), giving a “formulated test compound.” Formulated test compounds were applied to plants using a turn table sprayer fitted with two opposing air atomization nozzles which delivered approximately 1500 L/ha of spray volume. On the following day, the leaves were inoculated with an aqueous spore suspension of Puccinia recondita tritici and the plants were kept in high humidity overnight to permit spores to germinate and infect the leaf. The plants were then transferred to a greenhouse until disease developed on untreated control plants. Disease severity was evaluated 7-9 days later, depending on the speed of disease development. In each case of Table 3, the Puccinia rating scale is as follows: […]

SMILES	MIC [1] [µg/mL]	pest or weed control at 50 ppm [2] [%]
OC(Cn1cnnn1)(c1ccc(F)cc1F)C(F)(F)c1ccc(OCC2CC2)cn1 (stereo not drawn) [Compound 39, 1-(5-(Cyclopropylmethoxy)pyridin-2-yl)-2-(2,4-difluorophenyl)-1,1-difluoro-3-(1H-tetrazol-1-yl)propan-2-ol]	≤ 0.5	80 to 100
N#Cc1ccc(F)c(COc2ccc(C(F)(F)C(O)(Cn3cnnn3)c3ccc(F)cc3F)nc2)c1 (stereo not drawn) [Compound 59, 3-(((6-(2-(2,4-Difluorophenyl)-1,1-difluoro-2-hydroxy-3-(1H-tetrazol-1-yl)propyl)pyridin-3-yl)oxy)methyl)-4-fluorobenzonitrile]	≤ 0.5	80 to 100
CC(C)COc1ccc(C(F)(F)C(O)(Cn2cnnn2)c2ccc(Cl)cc2F)nc1 (stereo not drawn) [Compound 69, 2-(4-Chloro-2-fluorophenyl)-1,1-difluoro-1-(5-isobutoxypyridin-2-yl)-3-(1H-tetrazol-1-yl)propan-2-ol]	≤ 0.5	80 to 100
OC(Cn1cnnn1)(c1ccc(F)cc1F)C(F)(F)c1ccc(Oc2ccc(C(F)(F)F)cn2)cn1 (stereo not drawn) [Compound 94, 2-(2,4-difluorophenyl)-1,1-difluoro-3-(1H-tetrazol-1-yl)-1-(5-((5-(trifluoromethyl)pyridin-2-yl)oxy)pyridin-2-yl)propan-2-ol]	≤ 0.5	80 to 100
OC(Cn1cnnn1)(c1ccc(F)cc1F)C(F)(F)c1ccc(OCc2ccncc2)cn1 (stereo not drawn) [Compound 118, 2-(2,4-difluorophenyl)-1,1-difluoro-1-(5-(pyridin-4-ylmethoxy)pyridin-2-yl)-3-(1H-tetrazol-1-yl)propan-2-ol]	≤ 0.5	< 40
N#Cc1ccc(COc2ccc(C(F)(F)C(O)(Cn3cnnn3)c3ccc(Cl)cc3F)nc2)nc1 (stereo not drawn) [Compound 61, 6-(((6-(2-(4-Chloro-2-fluorophenyl)-1,1-difluoro-2-hydroxy-3-(1H-tetrazol-1-yl)propyl)pyridin-3-yl)oxy)methyl)nicotinonitrile]	≤ 0.5	80 to 100
OC(Cn1cnnn1)(c1ccc(F)cc1F)C(F)(F)c1ccc(OCc2ccc(F)cc2F)cn1 (stereo not drawn) [Compound 2, 1-(5-(2,4-Difluorobenzyloxy)pyridin-2-yl)-2-(2,4-difluorophenyl)-1,1-difluoro-3-(1H-tetrazol-1-yl)propan-2-ol]	≤ 0.5	80 to 100
OC(Cn1cnnn1)(c1ccc(F)cc1F)C(F)(F)c1ccc(Oc2ccc(Br)cn2)cn1 (stereo not drawn) [Compound 106, 1-(5-((5-bromopyridin-2-yl)oxy)pyridin-2-yl)-2-(2,4-difluorophenyl)-1,1-difluoro-3-(1H-tetrazol-1-yl)propan-2-ol]	≤ 0.5	80 to 100
N#Cc1ccc(Oc2ccc(C(F)(F)C(O)(Cn3cnnn3)c3ccc(F)cc3F)nc2)c(F)c1 (stereo not drawn) [Compound 89, 4-((6-(2-(2,4-Difluorophenyl)-1,1-difluoro-2-hydroxy-3-(1H-tetrazol-1-yl)propyl)pyridin-3-yl)oxy)-3-fluorobenzonitrile]	≤ 0.5	80 to 100
OC(Cn1cnnn1)(c1ccc(Cl)cc1F)C(F)(F)c1ccc(OCC(F)(F)F)cn1 (stereo not drawn) [Compound 71, 2-(4-Chloro-2-fluorophenyl)-1,1-difluoro-3-(1H-tetrazol-1-yl)-1-(5-(2,2,2-trifluoroethoxy)pyridin-2-yl)propan-2-ol]	≤ 0.5	80 to 100
N#Cc1ccc(COc2ccc(C(F)(F)C(O)(Cn3cnnn3)c3ccc(Cl)cc3F)nc2)cc1 (stereo not drawn) [Compound 55, 4-(((6-(2-(4-Chloro-2-fluorophenyl)-1,1-difluoro-2-hydroxy-3-(1H-tetrazol-1-yl)propyl)pyridin-3-yl)oxy)methyl)benzonitrile]	≤ 0.5	80 to 100

The next lines start with results.

MIC [1] [µg/mL]	SMILES	pest or weed control at 50 ppm [2] [%]
≤ 0.5	OC(Cn1cnnn1)(c1ccc(F)cc1F)C(F)(F)c1ccc(OCc2ccc(OC(F)(F)F)cc2)cn1 (stereo not drawn) [Compound 21, 2-(2,4-Difluorophenyl)-1,1-difluoro-3-(1H-tetrazol-1-yl)-1-(5-((4-(trifluoromethoxy)benzyl)oxy)pyridin-2-yl)propan-2-ol]	80 to 100
≤ 0.5	N#Cc1ccc(COc2ccc(C(F)(F)C(O)(Cn3cnnn3)c3ccc(F)cc3F)nc2)c(F)c1 (stereo not drawn) [Compound 57, 4-(((6-(2-(2,4-Difluorophenyl)-1,1-difluoro-2-hydroxy-3-(1H-tetrazol-1-yl)propyl)pyridin-3-yl)oxy)methyl)-3-fluorobenzonitrile]	80 to 100
≤ 0.5	OC(Cn1cnnn1)(c1ccc(F)cc1F)C(F)(F)c1ccc(Oc2ccc(F)c(F)c2)cn1 (stereo not drawn) [Compound 86, 1-(5-(3,4-Difluorophenoxy)pyridin-2-yl)-2-(2,4-difluorophenyl)-1,1-difluoro-3-(1H-tetrazol-1-yl)propan-2-ol]	80 to 100
≤ 0.5	OC(Cn1cnnn1)(c1ccc(F)cc1F)C(F)(F)c1ccc(Oc2ccc(Cl)cc2)cn1 (stereo not drawn) [Compound 7, 1-(5-(4-Chlorophenoxy)pyridin-2-yl)-2-(2,4-difluorophenyl)-1,1-difluoro-3-(1H-tetrazol-1-yl)propan-2-ol]	80 to 100
≤ 0.5	OC(Cn1cnnn1)(c1ccc(F)cc1F)C(F)(F)c1ccc(OCc2ccc(Cl)nc2)cn1 (stereo not drawn) [Compound 116, 1-(5-((6-chloropyridin-3-yl)methoxy)pyridin-2-yl)-2-(2,4-difluorophenyl)-1,1-difluoro-3-(1H-tetrazol-1-yl)propan-2-ol]	80 to 100
≤ 0.5	N#Cc1ccc(COc2ccc(C(F)(F)C(O)(Cn3cnnn3)c3ccc(F)cc3F)nc2)s1 (stereo not drawn) [Compound 73, 5-(((6-(2-(2,4-Difluorophenyl)-1,1-difluoro-2-hydroxy-3-(1H-tetrazol-1-yl)propyl)pyridin-3-yl)oxy)methyl)thiophene-2-carbonitrile]	80 to 100
1.5 to 4 (≈ 3.1 to 8.26 µM)	N#Cc1ccc(COc2ccc(C(F)(F)C(O)(Cn3ncnn3)c3ccc(F)cc3F)nc2)cc1 (stereo not drawn) [Compound 83, 4-(((6-(2-(2,4-Difluorophenyl)-1,1-difluoro-2-hydroxy-3-(2H-tetrazol-2-yl)propyl)pyridin-3-yl)oxy)methyl)benzonitrile]	40 to 59
≤ 0.5	COc1cccc(COc2ccc(C(F)(F)C(O)(Cn3cnnn3)c3ccc(F)cc3F)nc2)c1 (stereo not drawn) [Compound 34, 2-(2,4-Difluorophenyl)-1,1-difluoro-1-(5-((3-methoxybenzyl)oxy)pyridin-2-yl)-3-(1H-tetrazol-1-yl)propan-2-ol]	80 to 100
≤ 0.5	OC(Cn1cnnn1)(c1ccc(F)cc1F)C(F)(F)c1ccc(OCc2ccnc(Cl)c2)cn1 (stereo not drawn) [Compound 117, 1-(5-((2-chloropyridin-4-yl)methoxy)pyridin-2-yl)-2-(2,4-difluorophenyl)-1,1-difluoro-3-(1H-tetrazol-1-yl)propan-2-ol]	80 to 100
≤ 0.5	COc1ccc(COc2ccc(C(F)(F)C(O)(Cn3cnnn3)c3ccc(F)cc3F)nc2)cc1 (stereo not drawn) [Compound 41, 2-(2,4-Difluorophenyl)-1,1-difluoro-1-(5-((4-methoxybenzyl)oxy)pyridin-2-yl)-3-(1H-tetrazol-1-yl)propan-2-ol]	80 to 100
≤ 0.5	OC(Cn1cnnn1)(c1ccc(F)cc1F)C(F)(F)c1ccc(Oc2ccccc2F)cn1 (stereo not drawn) [Compound 88, 2-(2,4-Difluorophenyl)-1,1-difluoro-1-(5-(2-fluorophenoxy)pyridin-2-yl)-3-(1H-tetrazol-1-yl)propan-2-ol]	80 to 100
≤ 0.5	OC(Cn1cnnn1)(c1ccc(F)cc1F)C(F)(F)c1ccc(Oc2ncc(Br)cn2)cn1 (stereo not drawn) [Compound 99, 1-(5-((5-bromopyrimidin-2-yl)oxy)pyridin-2-yl)-2-(2,4-difluorophenyl)-1,1-difluoro-3-(1H-tetrazol-1-yl)propan-2-ol]	80 to 100
≤ 0.5	OC(Cn1cnnn1)(c1ccc(F)cc1F)C(F)(F)c1ccc(OCc2ccc(C(F)(F)F)cc2F)cn1 (stereo not drawn) [Compound 24, 2-(2,4-Difluorophenyl)-1,1-difluoro-1-(5-((2-fluoro-4-(trifluoromethyl)benzyl)oxy)pyridin-2-yl)-3-(1H-tetrazol-1-yl)propan-2-ol]	80 to 100
